1 compound from US20080165354A1, “Method and Apparatus For Dissolving Solid Matter in Liquid” (priority 2005, published 2008) can be followed below.

Data set [1] in a line: In situ Raman spectroscopic solid state analysis of the dissolving tablet in a flow-through chamber. Type of data set: physicochemical. The note with it: same setup as Example 1, flow rate 20 ml/min. Here is the method:
Dissolution testing was carried out employing simultaneous liquid/solid phase analysis. A modified flow-through dissolution method was used, in which • the concentration of the medium was measured with a UV-Vis spectrophotometer and • a simultaneous solid state analysis on the dissolving tablet in a flow-through chamber was performed using an in situ Raman spectroscopic analysis. The dissolution testing setup consisted of the flow-through cell, liquid reservoir (V=500 ml) and a peristaltic pump that circulates the medium (pump speed=70 rpm 9,3 ml/min). The dissolution medium used in the experiments was distilled water (room temperature). The Raman spectra were collected using a Raman spectrometer (Control Development, South Bend, Ind., USA) with a diode laser (Starbright 785 S, Torsana Laser Technologies, Skodsborg, Denmark) at 785 nm. A fiber optic sampling probe (InPhotonics, Norwood, MA, USA) was used. The spectral range measured was 2200-100 cm^−1 at a resolution of 5 cm^−1.

The nature of data set [2]: Flow-through dissolution test, concentration of the dissolution medium by in-line UV-Vis spectrophotometer. Type of data set: physicochemical. The note with it: same setup as Example 1, flow rate 20 ml/min. The procedure: Dissolution testing was carried out employing simultaneous liquid/solid phase analysis. A modified flow-through dissolution method was used, in which • the concentration of the medium was measured with a UV-Vis spectrophotometer and • a simultaneous solid state analysis on the dissolving tablet in a flow-through chamber was performed using an in situ Raman spectroscopic analysis. The dissolution testing setup consisted of the flow-through cell, liquid reservoir (V=500 ml) and a peristaltic pump that circulates the medium (pump speed=70 rpm 9,3 ml/min). The dissolution medium used in the experiments was distilled water (room temperature).

Entries after “also recorded” stand apart in the source; their conditions may differ.

With `O=C1CN(/N=C/c2ccc([N+](=O)[O-])o2)C(=O)N1` [NF anhydrate, Nitrofurantoin], the “solid phase transformation during dissolution” value in data set [1] is “solid phase transformation of NF anhydrate to NF monohydrate (II); also recorded: an order of magnitude slower than that of TP anhydrate”. In addition, the “changes of the dissolution rate” value in data set [2] was “more complicated when compared to changes in the dissolution rate of TP”.
